Holding throughout (test): Kinase selectivity, DiscoverX scanMAX Kinase assay panel (% control)
Type in all cases: binding

The target of test [1] is T1, kinases of the scanMAX Kinase assay panel (Homo sapiens, UniProt O15146).
T1 construct: purchased DiscoverX Co. (contract measurement) scanMAX Kinase assay panel
T1 sequence (O15146 24-869): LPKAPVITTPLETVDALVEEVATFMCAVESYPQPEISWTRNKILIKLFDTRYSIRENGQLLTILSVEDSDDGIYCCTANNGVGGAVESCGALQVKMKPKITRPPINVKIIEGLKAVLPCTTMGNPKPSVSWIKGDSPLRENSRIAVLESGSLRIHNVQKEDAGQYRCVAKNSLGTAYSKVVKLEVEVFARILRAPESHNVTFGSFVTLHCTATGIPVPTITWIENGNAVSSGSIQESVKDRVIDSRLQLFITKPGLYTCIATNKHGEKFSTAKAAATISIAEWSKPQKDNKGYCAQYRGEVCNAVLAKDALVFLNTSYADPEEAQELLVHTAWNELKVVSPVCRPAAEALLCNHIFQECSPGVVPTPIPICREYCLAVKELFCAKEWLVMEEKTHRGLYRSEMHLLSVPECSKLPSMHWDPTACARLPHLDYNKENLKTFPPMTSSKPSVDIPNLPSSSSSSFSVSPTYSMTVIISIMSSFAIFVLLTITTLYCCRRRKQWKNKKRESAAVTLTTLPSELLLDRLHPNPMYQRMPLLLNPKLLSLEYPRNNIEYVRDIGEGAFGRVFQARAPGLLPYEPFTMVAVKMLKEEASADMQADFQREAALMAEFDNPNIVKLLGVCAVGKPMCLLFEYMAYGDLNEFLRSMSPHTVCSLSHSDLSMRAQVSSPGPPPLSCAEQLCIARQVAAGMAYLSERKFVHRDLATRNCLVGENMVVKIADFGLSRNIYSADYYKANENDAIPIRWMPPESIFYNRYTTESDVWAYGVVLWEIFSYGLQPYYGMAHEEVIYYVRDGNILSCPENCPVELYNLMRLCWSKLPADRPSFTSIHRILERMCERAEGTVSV
The following applies: MUSK; 1 uM. The gist of the method:
(§1)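 Percent of control computed as (compound − positive control)/(negative control − positive control) × 100, DMSO defining 100% and positive control 0%. Each panel kinase exposed to 1 uM compound; values under 35% taken to mean the compound acts on that kinase.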

The target of test [2] is T2, kinases of the scanMAX Kinase assay panel (Homo sapiens, UniProt O14936).
T2 construct: purchased DiscoverX Co. (contract measurement) scanMAX Kinase assay panel
T2 sequence (O14936 1-926): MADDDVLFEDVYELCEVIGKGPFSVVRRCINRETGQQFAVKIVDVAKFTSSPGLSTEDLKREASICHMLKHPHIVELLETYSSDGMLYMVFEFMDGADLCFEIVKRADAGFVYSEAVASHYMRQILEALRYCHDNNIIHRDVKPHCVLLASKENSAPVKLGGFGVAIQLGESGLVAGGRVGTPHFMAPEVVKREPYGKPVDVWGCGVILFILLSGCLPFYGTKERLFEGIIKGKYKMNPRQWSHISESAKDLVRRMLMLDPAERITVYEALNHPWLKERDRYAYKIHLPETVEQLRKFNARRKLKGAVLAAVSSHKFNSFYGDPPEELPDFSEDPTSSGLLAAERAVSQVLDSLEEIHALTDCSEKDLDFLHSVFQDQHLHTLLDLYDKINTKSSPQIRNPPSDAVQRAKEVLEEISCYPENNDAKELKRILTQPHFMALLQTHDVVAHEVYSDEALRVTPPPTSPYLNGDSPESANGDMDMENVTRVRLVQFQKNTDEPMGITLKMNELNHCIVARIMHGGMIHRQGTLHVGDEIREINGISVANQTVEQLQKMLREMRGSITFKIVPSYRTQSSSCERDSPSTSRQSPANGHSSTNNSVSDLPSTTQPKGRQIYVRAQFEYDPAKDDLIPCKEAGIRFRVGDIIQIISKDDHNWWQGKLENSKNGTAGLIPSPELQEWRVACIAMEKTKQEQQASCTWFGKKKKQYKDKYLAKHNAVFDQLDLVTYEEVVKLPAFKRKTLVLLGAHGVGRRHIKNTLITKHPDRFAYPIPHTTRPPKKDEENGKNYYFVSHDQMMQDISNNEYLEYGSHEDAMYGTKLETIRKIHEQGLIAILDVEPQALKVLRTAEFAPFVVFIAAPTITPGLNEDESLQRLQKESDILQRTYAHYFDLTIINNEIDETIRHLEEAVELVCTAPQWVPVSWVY
The note with it: CASK; 1 uM. In outline: as §1

Test [3] has as its target T3, kinases of the scanMAX Kinase assay panel (Homo sapiens, UniProt Q9Y2I7).
T3 construct: purchased DiscoverX Co. (contract measurement) scanMAX Kinase assay panel
The note with it: PIKFYVE; 1 uM. The gist of the method:
as §1

Test [4] concerns the target T4, kinases of the scanMAX Kinase assay panel (Homo sapiens, UniProt Q8TDC3).
T4 construct: purchased DiscoverX Co. (contract measurement) scanMAX Kinase assay panel
T4 sequence (Q8TDC3 1-778): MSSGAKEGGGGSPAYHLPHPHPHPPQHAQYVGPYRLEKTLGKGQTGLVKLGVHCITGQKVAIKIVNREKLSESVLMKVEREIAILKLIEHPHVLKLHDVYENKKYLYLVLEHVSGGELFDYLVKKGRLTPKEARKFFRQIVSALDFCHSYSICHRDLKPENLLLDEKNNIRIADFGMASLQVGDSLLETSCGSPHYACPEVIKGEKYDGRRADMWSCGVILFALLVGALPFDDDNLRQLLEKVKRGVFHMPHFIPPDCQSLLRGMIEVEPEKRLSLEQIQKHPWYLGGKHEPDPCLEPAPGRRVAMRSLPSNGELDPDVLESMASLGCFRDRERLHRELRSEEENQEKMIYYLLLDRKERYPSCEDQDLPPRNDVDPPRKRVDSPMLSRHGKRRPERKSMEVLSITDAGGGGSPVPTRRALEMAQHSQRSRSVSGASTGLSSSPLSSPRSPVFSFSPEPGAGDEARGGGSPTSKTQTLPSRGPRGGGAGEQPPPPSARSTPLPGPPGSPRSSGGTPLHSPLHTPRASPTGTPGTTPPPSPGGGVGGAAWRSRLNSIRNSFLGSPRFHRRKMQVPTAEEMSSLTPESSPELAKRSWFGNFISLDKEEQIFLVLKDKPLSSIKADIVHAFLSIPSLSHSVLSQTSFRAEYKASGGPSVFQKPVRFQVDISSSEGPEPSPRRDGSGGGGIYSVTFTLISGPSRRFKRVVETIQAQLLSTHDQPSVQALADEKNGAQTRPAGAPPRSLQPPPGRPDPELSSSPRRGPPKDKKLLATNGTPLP
The following applies: BRSK1; 1 uM. The gist of the method:
as §1

T3 sequence (Q9Y2I7 whole entry): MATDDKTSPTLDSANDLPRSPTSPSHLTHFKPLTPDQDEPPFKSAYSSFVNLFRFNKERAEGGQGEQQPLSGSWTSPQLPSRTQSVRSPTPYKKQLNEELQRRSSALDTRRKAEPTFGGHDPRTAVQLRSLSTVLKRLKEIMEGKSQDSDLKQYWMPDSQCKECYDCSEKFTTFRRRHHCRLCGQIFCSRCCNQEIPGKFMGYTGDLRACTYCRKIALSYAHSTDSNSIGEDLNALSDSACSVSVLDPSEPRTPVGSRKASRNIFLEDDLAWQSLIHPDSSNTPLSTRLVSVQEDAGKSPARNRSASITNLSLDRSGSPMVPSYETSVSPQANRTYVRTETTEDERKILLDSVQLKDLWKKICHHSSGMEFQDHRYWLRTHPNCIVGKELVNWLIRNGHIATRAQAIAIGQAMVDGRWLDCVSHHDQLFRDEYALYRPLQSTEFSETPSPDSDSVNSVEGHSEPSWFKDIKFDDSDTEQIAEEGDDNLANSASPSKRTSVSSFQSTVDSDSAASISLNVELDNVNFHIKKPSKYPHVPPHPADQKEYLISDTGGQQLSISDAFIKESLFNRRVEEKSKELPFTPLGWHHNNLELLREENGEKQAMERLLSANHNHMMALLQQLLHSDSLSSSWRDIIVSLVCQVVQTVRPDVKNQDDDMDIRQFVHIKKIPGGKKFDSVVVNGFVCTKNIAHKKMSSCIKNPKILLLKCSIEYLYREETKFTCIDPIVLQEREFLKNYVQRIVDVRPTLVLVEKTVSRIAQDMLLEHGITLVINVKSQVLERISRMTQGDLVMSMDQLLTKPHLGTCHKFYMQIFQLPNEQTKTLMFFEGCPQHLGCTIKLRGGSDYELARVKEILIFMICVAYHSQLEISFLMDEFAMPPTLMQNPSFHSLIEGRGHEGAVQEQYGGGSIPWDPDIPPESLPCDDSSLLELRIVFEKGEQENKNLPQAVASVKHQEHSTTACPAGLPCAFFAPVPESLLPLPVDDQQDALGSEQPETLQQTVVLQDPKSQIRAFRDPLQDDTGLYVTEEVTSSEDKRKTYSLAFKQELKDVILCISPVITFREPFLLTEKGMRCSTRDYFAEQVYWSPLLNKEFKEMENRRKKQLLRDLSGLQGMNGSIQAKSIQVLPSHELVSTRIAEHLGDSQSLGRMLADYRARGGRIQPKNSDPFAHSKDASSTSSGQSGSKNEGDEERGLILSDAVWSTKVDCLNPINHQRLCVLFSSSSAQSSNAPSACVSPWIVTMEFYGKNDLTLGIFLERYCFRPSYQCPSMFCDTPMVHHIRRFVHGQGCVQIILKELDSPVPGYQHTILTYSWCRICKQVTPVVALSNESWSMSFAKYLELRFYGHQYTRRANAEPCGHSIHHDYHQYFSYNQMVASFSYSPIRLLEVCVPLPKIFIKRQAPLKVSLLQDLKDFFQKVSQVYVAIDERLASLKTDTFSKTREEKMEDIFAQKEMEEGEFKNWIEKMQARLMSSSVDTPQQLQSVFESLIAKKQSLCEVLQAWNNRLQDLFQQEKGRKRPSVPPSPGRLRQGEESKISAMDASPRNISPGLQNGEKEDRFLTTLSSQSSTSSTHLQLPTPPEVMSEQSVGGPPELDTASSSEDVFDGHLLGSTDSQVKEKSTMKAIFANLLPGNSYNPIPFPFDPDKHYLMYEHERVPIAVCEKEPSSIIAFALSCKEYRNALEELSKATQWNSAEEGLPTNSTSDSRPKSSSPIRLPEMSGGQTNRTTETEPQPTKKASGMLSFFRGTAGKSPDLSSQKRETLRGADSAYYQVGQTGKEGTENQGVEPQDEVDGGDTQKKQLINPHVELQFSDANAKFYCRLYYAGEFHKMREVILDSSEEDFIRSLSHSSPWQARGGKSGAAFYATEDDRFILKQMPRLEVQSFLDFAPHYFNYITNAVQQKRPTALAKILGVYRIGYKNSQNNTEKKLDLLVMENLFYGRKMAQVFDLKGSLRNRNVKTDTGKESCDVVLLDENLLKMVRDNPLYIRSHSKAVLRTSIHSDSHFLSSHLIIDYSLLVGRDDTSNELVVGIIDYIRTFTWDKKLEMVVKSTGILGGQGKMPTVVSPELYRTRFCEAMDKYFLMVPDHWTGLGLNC

Turning to `CNc1nc(Nc2ccc(C(=O)N3CCOCC3)cc2OC)nc2[nH]cc(C#N)c12` [Example 1, 2-((2-methoxy-4-(morpholine-4-carbonyl)phenyl)amino)-4-(methylamino)-7H-pyrrolo[2,3-d]pyrimidine-5-carbonitrile], the remaining binding at 1 µM in test [1] turned out to be 97%; in test [2] it was 69%; in test [3], 73%; in test [4], 97%.

For `CC1(Nc2nc(Nc3cnn([C@H]4CCN(C5COC5)C[C@@H]4F)c3Cl)nc3[nH]cc(C#N)c23)CC1` [Example 52, 2-((5-chloro-1-((3S,4S)-3-fluoro-1-(oxetane-3-yl)piperidine-4-yl)-1H-pyrazole-4-yl)amino)((1-methylcyclopropyl)amino)-7H-pyrrolo[2,3-d]pyrimidine-5-carbonitrile], the remaining binding at 1 µM came out at 100% in test [1], 91% in test [2], 65% in test [3] and 96% in test [4].

As to `CCNc1nc(Nc2ccc(C(=O)N3CCC(N4CCOCC4)CC3)cc2OC)nc2[nH]cc(C(F)(F)F)c12` [Example 104, (4-((4-(ethylamino)-5-(trifluoromethyl)-7H-pyrrolo[2,3-d]pyrimidine-2-yl)amino)-3-methoxyphenyl)(4-morpholinopiperidine-1-yl)methanone], the remaining binding at 1 µM in test [1] is 94%; in test [2] it was 100%; in test [3] it was 100%; in test [4] it was 100%.
